Test system: lung function
Experiment: Example 1: percent predicted FVC change from baseline
Format: in vivo, human
Details: mean (SD)
Protocol: Change From Baseline in Percent Predicted Forced Vital Capacity (FVC) at Each Specified Time Points. FVC was the total amount of air (in liters) exhaled from the lungs during the lung function test measured by spirometer which assessed the change in lung function related to the disease status. Baseline value was defined as valid and last non-missing value obtained within 28 days prior to participant receiving first study medication. EOT visit was performed within 3 days after the participant's last dose of study drug. […] Analysis was performed on mITT population. Here, ‘number analyzed’=participants with available data for each specified category. Here, ‘0’ in the number analyzed field signifies that none of the participants were available for the analysis at the specified time points.

CC(C)NC(=O)COc1cccc(-c2nc(Nc3ccc4[nH]ncc4c3)c3ccccc3n2)c1 [Belumosudil, 2-{3-[4-(1H-indazol-5-ylamino)-2-quinazolinyl]phenoxy}-N-(propan-2-yl) acetamide]
Change From Baseline in Percent Predicted Forced Vital Capacity (FVC) (Cohort 1: 200 mg QD, Cycle 3, Day 1): 0.5 (3.8) percent predicted FVC | Change From Baseline in Percent Predicted Forced Vital Capacity (FVC) (Cohort 1: 200 mg QD, Cycle 5, Day 1): −0.5 (7.1) percent predicted FVC | Change From Baseline in Percent Predicted Forced Vital Capacity (FVC) (Cohort 1: 200 mg QD, Cycle 7, Day 1): −2.9 (5.2) percent predicted FVC | Change From Baseline in Percent Predicted Forced Vital Capacity (FVC) (Cohort 1: 200 mg QD, Cycle 9, Day 1): 0.4 (5.1) percent predicted FVC | Change From Baseline in Percent Predicted Forced Vital Capacity (FVC) (Cohort 1: 200 mg QD, Cycle 11, Day 1): −1.1 (7.3) percent predicted FVC | Change From Baseline in Percent Predicted Forced Vital Capacity (FVC) (Cohort 1: 200 mg QD, Cycle 12, Day 1): 2.0 (—) percent predicted FVC | Change From Baseline in Percent Predicted Forced Vital Capacity (FVC) (Cohort 1: 200 mg QD, Cycle 13, Day 1): −2.4 (7.9) percent predicted FVC | Change From Baseline in Percent Predicted Forced Vital Capacity (FVC) (Cohort 1: 200 mg QD, Cycle 14, Day 1): 11.0 (—) percent predicted FVC | Change From Baseline in Percent Predicted Forced Vital Capacity (FVC) (Cohort 1: 200 mg QD, Cycle 15, Day 1): −3.7 (10.4) percent predicted FVC | Change From Baseline in Percent Predicted Forced Vital Capacity (FVC) (Cohort 1: 200 mg QD, Cycle 16, Day 1): 16.0 (—) percent predicted FVC | Change From Baseline in Percent Predicted Forced Vital Capacity (FVC) (Cohort 1: 200 mg QD, Cycle 17, Day 1): −3.2 (6.3) percent predicted FVC | Change From Baseline in Percent Predicted Forced Vital Capacity (FVC) (Cohort 1: 200 mg QD, Cycle 19, Day 1): −2.3 (6.8) percent predicted FVC | Change From Baseline in Percent Predicted Forced Vital Capacity (FVC) (Cohort 1: 200 mg QD, Cycle 21, Day 1): −3.2 (8.1) percent predicted FVC | Change From Baseline in Percent Predicted Forced Vital Capacity (FVC) (Cohort 1: 200 mg QD, Cycle 23, Day 1): 0.0 (12.3) percent predicted FVC | Change From Baseline in Percent Predicted Forced Vital Capacity (FVC) (Cohort 1: 200 mg QD, Cycle 24, Day 1): 4.0 (—) percent predicted FVC | Change From Baseline in Percent Predicted Forced Vital Capacity (FVC) (Cohort 1: 200 mg QD, Cycle 25, Day 1): −7.0 (11.3) percent predicted FVC | Change From Baseline in Percent Predicted Forced Vital Capacity (FVC) (Cohort 1: 200 mg QD, Cycle 26, Day 1): 4.0 (—) percent predicted FVC | Change From Baseline in Percent Predicted Forced Vital Capacity (FVC) (Cohort 1: 200 mg QD, Cycle 27, Day 1): −2.0 (4.2) percent predicted FVC | Change From Baseline in Percent Predicted Forced Vital Capacity (FVC) (Cohort 1: 200 mg QD, Cycle 29, Day 1): 2.5 (4.9) percent predicted FVC | Change From Baseline in Percent Predicted Forced Vital Capacity (FVC) (Cohort 1: 200 mg QD, Cycle 30, Day 1): 4.0 (—) percent predicted FVC | Change From Baseline in Percent Predicted Forced Vital Capacity (FVC) (Cohort 1: 200 mg QD, Cycle 31, Day 1): 1.5 (3.5) percent predicted FVC | Change From Baseline in Percent Predicted Forced Vital Capacity (FVC) (Cohort 1: 200 mg QD, Cycle 32, Day 1): 2.0 (—) percent predicted FVC | Change From Baseline in Percent Predicted Forced Vital Capacity (FVC) (Cohort 1: 200 mg QD, Cycle 33, Day 1): 11.0 (0.0) percent predicted FVC | Change From Baseline in Percent Predicted Forced Vital Capacity (FVC) (Cohort 1: 200 mg QD, Cycle 34, Day 1): 6.0 (—) percent predicted FVC | Change From Baseline in Percent Predicted Forced Vital Capacity (FVC) (Cohort 1: 200 mg QD, Cycle 35, Day 1): 11.0 (5.7) percent predicted FVC | Change From Baseline in Percent Predicted Forced Vital Capacity (FVC) (Cohort 1: 200 mg QD, Cycle 36, Day 1): 5.0 (—) percent predicted FVC | Change From Baseline in Percent Predicted Forced Vital Capacity (FVC) (Cohort 1: 200 mg QD, Cycle 48, Day 1): 5.0 (—) percent predicted FVC | Change From Baseline in Percent Predicted Forced Vital Capacity (FVC) (Cohort 1: 200 mg QD, Cycle 49, Day 1): 6.0 (—) percent predicted FVC | Change From Baseline in Percent Predicted Forced Vital Capacity (FVC) (Cohort 1: 200 mg QD, Cycle 51, Day 1): 9.0 (—) percent predicted FVC | Change From Baseline in Percent Predicted Forced Vital Capacity (FVC) (Cohort 1: 200 mg QD, Cycle 52, Day 1): 3.0 (—) percent predicted FVC | Change From Baseline in Percent Predicted Forced Vital Capacity (FVC) (Cohort 1: 200 mg QD, Cycle 53, Day 1): 8.0 (—) percent predicted FVC | Change From Baseline in Percent Predicted Forced Vital Capacity (FVC) (Cohort 1: 200 mg QD, Cycle 54, Day 1): 5.0 (—) percent predicted FVC | Change From Baseline in Percent Predicted Forced Vital Capacity (FVC) (Cohort 1: 200 mg QD, Cycle 55, Day 1): 13.0 (—) percent predicted FVC | Change From Baseline in Percent Predicted Forced Vital Capacity (FVC) (Cohort 1: 200 mg QD, Cycle 56, Day 1): 7.0 (—) percent predicted FVC | Change From Baseline in Percent Predicted Forced Vital Capacity (FVC) (Cohort 1: 200 mg QD, Cycle 57, Day 1): 14.0 (—) percent predicted FVC | Change From Baseline in Percent Predicted Forced Vital Capacity (FVC) (Cohort 1: 200 mg QD, Cycle 58, Day 1): 7.0 (—) percent predicted FVC | Change From Baseline in Percent Predicted Forced Vital Capacity (FVC) (Cohort 1: 200 mg QD, Cycle 60, Day 1): 8.0 (—) percent predicted FVC | Change From Baseline in Percent Predicted Forced Vital Capacity (FVC) (Cohort 1: 200 mg QD, Cycle 61, Day 1): 12.0 (—) percent predicted FVC | Change From Baseline in Percent Predicted Forced Vital Capacity (FVC) (Cohort 1: 200 mg QD, Cycle 62, Day 1): 5.0 (—) percent predicted FVC | Change From Baseline in Percent Predicted Forced Vital Capacity (FVC) (Cohort 1: 200 mg QD, Cycle 63, Day 1): 12.0 (—) percent predicted FVC | Change From Baseline in Percent Predicted Forced Vital Capacity (FVC) (Cohort 1: 200 mg QD, Cycle 67, Day 1): 14.0 (—) percent predicted FVC | Change From Baseline in Percent Predicted Forced Vital Capacity (FVC) (Cohort 1: 200 mg QD, EOT): −2.5 (10.3) percent predicted FVC | Change From Baseline in Percent Predicted Forced Vital Capacity (FVC) (Cohort 2: 200 mg BID, Cycle 3, Day 1): −2.4 (6.0) percent predicted FVC | Change From Baseline in Percent Predicted Forced Vital Capacity (FVC) (Cohort 2: 200 mg BID, Cycle 5, Day 1): −4.3 (5.2) percent predicted FVC | Change From Baseline in Percent Predicted Forced Vital Capacity (FVC) (Cohort 2: 200 mg BID, Cycle 7, Day 1): −1.3 (6.4) percent predicted FVC | Change From Baseline in Percent Predicted Forced Vital Capacity (FVC) (Cohort 2: 200 mg BID, Cycle 8, Day 1): 2.0 (—) percent predicted FVC | Change From Baseline in Percent Predicted Forced Vital Capacity (FVC) (Cohort 2: 200 mg BID, Cycle 9, Day 1): −2.9 (5.5) percent predicted FVC | Change From Baseline in Percent Predicted Forced Vital Capacity (FVC) (Cohort 2: 200 mg BID, Cycle 10, Day 1): −5.0 (8.5) percent predicted FVC | Change From Baseline in Percent Predicted Forced Vital Capacity (FVC) (Cohort 2: 200 mg BID, Cycle 11, Day 1): −2.7 (5.6) percent predicted FVC | Change From Baseline in Percent Predicted Forced Vital Capacity (FVC) (Cohort 2: 200 mg BID, Cycle 12, Day 1): 1.0 (—) percent predicted FVC
